Data reported in ChEMBL document CHEMBL1144939, “Modeling the adenosine receptors: comparison of the binding domains of A2A agonists and antagonists” (J Med Chem, 2003).

Columns and labels:
Adenosine receptor A2a [1] = biological target: Adenosine receptor A2a (Homo sapiens, UniProt P29274, S277E); test: biochemical
Adenosine receptor A2a [2] = biological target: Adenosine receptor A2a (Homo sapiens, UniProt P29274, T88E); test: Binding affinity against T88E human adenosine A2A receptor expressed in CHO cells using [3H]- ZM-241385; format: cell-based
Chain of Adenosine receptor A2a (Homo sapiens, UniProt P29274, T88E) (P29274 whole entry T88E): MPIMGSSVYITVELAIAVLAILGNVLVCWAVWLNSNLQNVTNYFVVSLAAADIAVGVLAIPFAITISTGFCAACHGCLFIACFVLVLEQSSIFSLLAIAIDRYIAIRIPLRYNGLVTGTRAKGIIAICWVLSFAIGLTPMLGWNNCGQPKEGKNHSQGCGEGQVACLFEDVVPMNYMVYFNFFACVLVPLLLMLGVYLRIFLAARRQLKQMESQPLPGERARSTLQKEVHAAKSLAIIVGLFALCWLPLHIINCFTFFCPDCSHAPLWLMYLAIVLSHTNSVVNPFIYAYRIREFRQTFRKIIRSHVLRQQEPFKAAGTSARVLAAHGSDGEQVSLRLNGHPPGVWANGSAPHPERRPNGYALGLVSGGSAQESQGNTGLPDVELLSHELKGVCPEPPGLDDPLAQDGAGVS

Adenosine receptor A2a [3] = biological target: Adenosine receptor A2a (Homo sapiens, UniProt P29274); test: biochemical
Chain of Adenosine receptor A2a (Homo sapiens, UniProt P29274) (P29274 whole entry): as the sequence (P29274 whole entry T88E) above, with E88T counted along it
Description: Binding affinity against WT human adenosine A2A receptor expressed in CHO cells using [3H]- ZM-241385

Adenosine receptor A2a [4] = biological target: Adenosine receptor A2a (Homo sapiens, UniProt P29274, H278D); test: biochemical
Chain of Adenosine receptor A2a (Homo sapiens, UniProt P29274, H278D) (P29274 whole entry H278D): as the sequence (P29274 whole entry T88E) above, with E88T, H278D counted along it

Adenosine receptor A2a [5] = biological target: Adenosine receptor A2a (Homo sapiens, UniProt P29274, T88D); test: Binding affinity against T88D human adenosine A2A receptor expressed in CHO cells using [3H]- ZM-241385; format: cell-based
Chain of Adenosine receptor A2a (Homo sapiens, UniProt P29274, T88D) (P29274 whole entry T88D): as the sequence (P29274 whole entry T88E) above, with E88D counted along it

Adenosine receptor A2a [6] = biological target: Adenosine receptor A2a (Homo sapiens, UniProt P29274, Q89D); test: biochemical
Chain of Adenosine receptor A2a (Homo sapiens, UniProt P29274, Q89D) (P29274 whole entry Q89D): as the sequence (P29274 whole entry T88E) above, with E88T, Q89D counted along it

Adenosine receptor A2a [7] = biological target: Adenosine receptor A2a (Homo sapiens, UniProt P29274, H278E); test: biochemical
Chain of Adenosine receptor A2a (Homo sapiens, UniProt P29274, H278E) (P29274 whole entry H278E): as the sequence (P29274 whole entry T88E) above, with E88T, H278E counted along it

[8] = biological target: Adenosine receptors; A1 & A2a (Homo sapiens) (UniProt P30542+P29274); test: Selectivity ratio for binding to human adenosine A1 and A2A receptors; format: protein assay

Chain of Adenosine receptor A2a (Homo sapiens, UniProt P29274, S277E) (P29274 whole entry S277E): as the sequence (P29274 whole entry T88E) above, with E88T, S277E counted along it

Row | Ki (Adenosine receptor A2a [1]) | Ki (Adenosine receptor A2a [2]) | Ki (Adenosine receptor A2a [3]) | Ki (Adenosine receptor A2a [4]) | Ki (Adenosine receptor A2a [5]) | Ki (Adenosine receptor A2a [6]) | Ki (Adenosine receptor A2a [7]) | Ratio [8] | Compound
1 | 88 µM | 57 µM | 67 nM | 87 µM | 18 µM | 6.4 µM | 64 µM |  | N[C@H]1[C@@H](O)[C@H](n2cnc3c(NCc4cccc(I)c4)ncnc32)O[C@@H]1CO
2 |  |  |  |  |  |  |  | 9820 | Nc1ccc(CCCn2ncc3c2nc(N)n2nc(-c4ccco4)nc32)cc1
3 | 67 µM | 64 µM | 79 nM | 59 µM | 6.5 µM | 58 µM | 56 µM |  | NC[C@H]1[C@@H](O)[C@H](n2cnc3c(NCc4cccc(I)c4)ncnc32)O[C@@H]1CO
4 | 604 µM | 492 µM | 534 nM |  | 407 µM | 52 µM |  |  | NC[C@H]1O[C@@H](n2cnc3c(N)ncnc32)[C@H](O)[C@@H]1O
